# Data as given in patent publication US12540131B2 (Merck Sharp & Dohme LLC, priority 2019, dated 2026).
# Molecular target: GST tagged truncated human mutant G2019S LRRK2 (Homo sapiens (Human), UniProt Q5S007, G2019S)
# Test: LRRK2 Km ATP LanthaScreen Assay
# Type: biochemical
# Conditions: G2019S LRRK2, 134 μM ATP (Km ATP), mean values
# Outline: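 Enzyme (GST-tagged, truncated) was preincubated with compound for 15 min at RT in 50 mM Tris pH 8.5, 10 mM MgCl2, 0.01% Brij-35, 1 mM EGTA, 2 mM DTT and 0.05 mM orthovanadate. Fluorescein-LRRKtide and 134 μM ATP (Km) were then added for 90 min. EDTA and Tb-anti-pERM antibody stopped the reaction; the TR-FRET 520/495 ratio gave 4-parameter IC50s, reported as mean pIC50.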
# Chain of GST tagged truncated human mutant G2019S LRRK2 (Q5S007 970-2527 G2019S): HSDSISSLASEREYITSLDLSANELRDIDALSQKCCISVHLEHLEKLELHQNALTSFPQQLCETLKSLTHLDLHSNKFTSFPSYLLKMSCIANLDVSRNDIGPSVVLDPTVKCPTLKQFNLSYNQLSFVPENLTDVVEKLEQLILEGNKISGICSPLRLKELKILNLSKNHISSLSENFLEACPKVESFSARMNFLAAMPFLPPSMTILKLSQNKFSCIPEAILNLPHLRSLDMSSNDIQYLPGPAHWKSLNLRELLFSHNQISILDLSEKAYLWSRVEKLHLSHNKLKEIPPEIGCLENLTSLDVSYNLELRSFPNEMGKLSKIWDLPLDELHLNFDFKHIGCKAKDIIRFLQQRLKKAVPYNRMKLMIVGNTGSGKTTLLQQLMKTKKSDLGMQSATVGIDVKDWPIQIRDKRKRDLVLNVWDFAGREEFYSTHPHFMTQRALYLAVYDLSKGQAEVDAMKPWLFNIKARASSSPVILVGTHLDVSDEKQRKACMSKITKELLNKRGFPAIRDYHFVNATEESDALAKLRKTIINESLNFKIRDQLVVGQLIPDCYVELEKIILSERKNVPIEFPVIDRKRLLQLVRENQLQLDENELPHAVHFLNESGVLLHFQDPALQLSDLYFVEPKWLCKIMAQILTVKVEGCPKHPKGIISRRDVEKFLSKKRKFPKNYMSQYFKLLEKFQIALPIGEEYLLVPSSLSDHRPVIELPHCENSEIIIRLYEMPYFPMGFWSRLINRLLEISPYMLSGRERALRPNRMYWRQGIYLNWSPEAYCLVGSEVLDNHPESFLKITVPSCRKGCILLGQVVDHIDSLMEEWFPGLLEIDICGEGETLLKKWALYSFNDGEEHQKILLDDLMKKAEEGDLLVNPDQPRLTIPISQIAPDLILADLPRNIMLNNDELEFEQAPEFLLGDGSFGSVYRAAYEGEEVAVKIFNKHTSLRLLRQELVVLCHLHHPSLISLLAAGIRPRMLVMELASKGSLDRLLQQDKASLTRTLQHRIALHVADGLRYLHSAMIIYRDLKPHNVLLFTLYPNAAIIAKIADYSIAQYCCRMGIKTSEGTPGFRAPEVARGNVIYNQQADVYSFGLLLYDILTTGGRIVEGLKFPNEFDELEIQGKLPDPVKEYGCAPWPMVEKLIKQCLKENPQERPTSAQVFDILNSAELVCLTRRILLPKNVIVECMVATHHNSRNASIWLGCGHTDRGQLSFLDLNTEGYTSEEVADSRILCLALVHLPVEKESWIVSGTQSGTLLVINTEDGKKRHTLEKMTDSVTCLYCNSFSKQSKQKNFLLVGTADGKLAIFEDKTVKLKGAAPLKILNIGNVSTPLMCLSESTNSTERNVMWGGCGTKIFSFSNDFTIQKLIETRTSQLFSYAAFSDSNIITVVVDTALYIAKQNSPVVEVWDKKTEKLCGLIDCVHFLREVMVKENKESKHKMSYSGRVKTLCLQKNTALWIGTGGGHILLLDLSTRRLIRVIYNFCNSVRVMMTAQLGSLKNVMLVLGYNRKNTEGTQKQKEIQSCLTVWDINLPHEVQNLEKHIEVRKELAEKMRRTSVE
row,SMILES,LRRK2 pIC50
1,"Cn1nc(C(F)(F)F)cc1Nc1ncc2cc(Cl)c([C@@H]3CCN([C@@]4(C)COC[C@H]4O)C[C@H]3F)cc2n1 (single isomer, unassigned) [Ex-4.252, (3S,4S)(3S,4S) or (3S,4S)(3R,4R) or (3R,4R)(3S,4S) or (3R,4R)(3R,4R) 4-[4-(6-chloro-2-{[1-methyl-3-(trifluoromethyl)-1H-pyrazol-5-yl]amino}quinazolin-7-yl)-3-fluoropiperidin-1-yl]-4-methyloxolan-3-ol]",6.61
2,"CO[C@@H]1COC[C@@H]1N1CC[C@@H](c2cc3nc(Nc4cnn(C5CC5(F)F)c4Cl)ncc3cc2C)[C@H](F)C1 (single isomer, unassigned) [Ex-4.246, (R)(3S,4S)(3S,4S) or (R)(3S,4S)(3R,4R) or (R)(3R,4R)(3S,4S) or (R)(3R,4R)(3R,4R) or (S)(3S,4S)(3S,4S) or (S)(3S,4S)(3R,4R) or (S)(3R,4R)(3S,4S) or (S)(3R,4R)(3R,4R) N-[5-chloro-1-(2,2-difluorocyclopropyl)-1H-pyrazol-4-yl]-7-[3-fluoro-1-(4-methoxyoxolan-3-yl)piperidin-4-yl]-6-methylquinazolin-2-amine]",8.22
3,"Cc1c(Nc2ncc3cc(Cl)c([C@@H]4CCN(C5COC5)C[C@H]4F)cc3n2)cnn1C1CC1(F)F (single isomer, unassigned) [Ex-4.178, (R)(3S,4S) or (S)(3S,4S) or (R)(3R,4R) or (S)(3R,4R) 6-chloro-N-[1-(2,2-difluorocyclopropyl)-5-methyl-1H-pyrazol-4-yl]-7-[(3R,4R)-3-fluoro-1-(oxetan-3-yl)piperidin-4-yl]quinazolin-2-amine]",8.58
4,"[2H]C([2H])([2H])n1ncc(Nc2ncc3cc(Cl)c(C4CCN([C@]5(C)COC[C@@H]5O)CC4)cc3n2)c1C (single isomer, unassigned) [Ex-1.26, (3S,4S) or (3R,4R)-4-(4-(6-chloro-2-((5-methyl-1-(methyl-d3)-1H-pyrazol-4-yl)amino)quinazolin-7-yl)piperidin-1-yl)-4-methyltetrahydrofuran-3-ol]",>9.20
5,"CC1OCC1N1CC[C@@H](c2cc3nc(Nc4cnn(CC(C)(C)O)c4Cl)ncc3cc2Cl)[C@H](F)C1 (single isomer, unassigned) [Ex-4.71, (3S,4S)(2R,3R) or (3S,4S)(2S,3S) or (3R,4R)(2R,3R) or (3R,4R)(2S,3S) or (3R,4R)(2S,3R) or (3R,4R)(2R,3S) or (3S,4S)(2S,3R) or (3S,4S)(2R,3S) 1-[5-chloro-4-({6-chloro-7-[3-fluoro-1-(2-methyloxetan-3-yl)piperidin-4-yl]quinazolin-2-yl}amino)-1H-pyrazol-1-yl]-2-methylpropan-2-ol]",7.74
6,"Cc1cc2cnc(Nc3cnn(C45CC(C4)C5)c3C)nc2cc1C1CCN(C2(C)COC2)CC1 [Ex-5.8, N-[1-(bicyclo[1.1.1]pentan-1-yl)-5-methyl-1H-pyrazol-4-yl]-6-methyl-7-[1-(3-methyloxetan-3-yl)piperidin-4-yl]quinazolin-2-amine]",>9.20
7,"CC1OCC1N1CC[C@H](c2cc3nc(Nc4cnn(CC(C)(C)O)c4Cl)ncc3cc2Cl)[C@@H](F)C1 (single isomer, unassigned) [Ex-4.73, (3S,4S)(2R,3R) or (3S,4S)(2S,3S) or (3R,4R)(2R,3R) or (3R,4R)(2S,3S) or (3R,4R)(2S,3R) or (3R,4R)(2R,3S) or (3S,4S)(2S,3R) or (3S,4S)(2R,3S) 1-[5-chloro-4-({6-chloro-7-[3-fluoro-1-(2-methyloxetan-3-yl)piperidin-4-yl]quinazolin-2-yl}amino)-1H-pyrazol-1-yl]-2-methylpropan-2-ol]",9.13
8,"CN1CC[C@H](c2cc3nc(Nc4cnn(C5CC5)c4Cl)ncc3cc2Cl)[C@@H](F)C1 (single isomer, unassigned) [Ex-4.40, (3S,4S) or (3R,4R) 6-chloro-N-(5-chloro-1-cyclopropyl-1H-pyrazol-4-yl)-7-(3-fluoro-1-methylpiperidin-4-yl)quinazolin-2-amine]",>9.20
9,"FC(F)Cn1ncc(Nc2ncc3cc(Cl)c(C4CCN(C5COC5)CC4)cc3n2)c1Cl [Ex-4.55, 6-chloro-N-[5-chloro-1-(2,2-difluoroethyl)-1H-pyrazol-4-yl]-7-[1-(oxetan-3-yl)piperidin-4-yl]quinazolin-2-amine]",>9.20
10,"CC1CC(c2cc3nc(Nc4cnn(C5CC5)c4Cl)ncc3cc2Cl)CCN1C1COC1 (single isomer, unassigned) [Ex-4.106, (2S,4S) or (2R,4R) or (2S,4R) or (2R,4S) 6-chloro-N-(5-chloro-1-cyclopropyl-1H-pyrazol-4-yl)-7-(2-methyl-1-(oxetan-3-yl)piperidin-4-yl)quinazolin-2-amine]",>9.20
11,"Cn1ncc(Nc2ncc3cc(Cl)c(C4CCN([C@]5(C)COC[C@@H]5O)CC4)cc3n2)c1Cl (single isomer, unassigned) [Ex-2.76, (3S,4S) or (3R,4R) 4-(4-(6-chloro-2-((5-chloro-1-methyl-1H-pyrazol-4-yl)amino)quinazolin-7-yl)piperidin-1-yl)-4-methyltetrahydrofuran-3-ol]",7.76
12,"Cc1cc2cnc(Nc3cnn(C4CC4)c3Cl)nc2cc1C1CCN(C2COCC2O)CC1 (single isomer, unassigned) [Ex-2.4, (3S,4S) or (3R,4R)-(4-(4-(2-((5-chloro-1-cyclopropyl-1H-pyrazol-4-yl)amino)-6-methylquinazolin-7-yl)piperidin-1-yl)tetrahydrofuran-3-ol]",>9.20
13,"O[C@@H]1COC[C@@H]1N1CC[C@H](c2cc3nc(Nc4cnn(C56CC(C5)C6)c4)ncc3cc2Cl)[C@@H](F)C1 (single isomer, unassigned) [Ex-4.155, (3S,4S)(3S,4S) or (3S,4S)(3R,4R) or (3R,4R)(3S,4S) or (3R,4R)(3R,4R) 4-[4-(2-{[1-(bicyclo[1.1.1]pentan-1-yl)-1H-pyrazol-4-yl]amino}-6-chloroquinazolin-7-yl)-3-fluoropiperidin-1-yl]oxolan-3-ol]",>9.20
14,"Cc1c(Nc2ncc3cc(Cl)c(C4CCN(C5CC[C@@H]5O)CC4)cc3n2)cnn1C1CC1 (single isomer, unassigned) [Ex-1.6, (1R,2S) or (1R,2R) or (1S,2S) or (1S,2R) 2-(4-(6-chloro-2-((1-cyclopropyl-5-methyl-1H-pyrazol-4-yl)amino)quinazolin-7-yl)piperidin-1-yl)cyclobutan-1-ol]",>9.20
15,"O[C@@H]1COCC1N1CC[C@H](c2cc3nc(Nc4cnn(C5CC5(F)F)c4Cl)ncc3cc2Cl)[C@@H](F)C1 (single isomer, unassigned) [Ex-4.125, (R)(3S,4S)(3S,4S) or (R)(3S,4S)(3R,4R) or (R)(3R,4R)(3S,4S) or (R)(3R,4R)(3R,4R) or (S)(3S,4S)(3S,4S) or (S)(3S,4S)(3R,4R) or (S)(3R,4R)(3S,4S) or (S)(3R,4R)(3R,4R) 4-(6-chloro-2-{[5-chloro-1-(2,2-difluorocyclopropyl)-1H-pyrazol-4-yl]amino}quinazolin-7-yl)-3-fluoropiperidin-1-yl]oxolan-3-ol]",8.16
16,"Cc1c(Nc2ncc3cc(Cl)c(C4CCN(C[C@H](O)c5cccc(F)c5F)CC4)cc3n2)cnn1C1CC1 [Ex-4.206, (1R)-2-(4-{6-chloro-2-[(1-cyclopropyl-5-methyl-1H-pyrazol-4-yl)amino]quinazolin-7-yl}piperidin-1-yl)-1-(2,3-difluorophenyl)ethan-1-ol]",7.90
17,"FC(F)Cn1ncc(Nc2ncc3cc(Cl)c(C4CCNCC4)cc3n2)c1Cl [Ex-4.93, 6-chloro-N-[5-chloro-1-(2,2-difluoroethyl)-1H-pyrazol-4-yl]-7-(piperidin-4-yl)quinazolin-2-amine]",8.70
18,"O[C@H]1COC[C@H]1N1CCC(c2cc3nc(Nc4cnn(C56CC(C5)C6)c4)ncc3cc2Cl)CC1 (single isomer, unassigned) [Ex-4.151, (3S,4S) or (3R,4R) 4-[4-(2-{[1-(bicyclo[1.1.1]pentan-1-yl)-1H-pyrazol-4-yl]amino}-6-chloroquinazolin-7-yl)piperidin-1-yl]oxolan-3-ol]",8.98
19,"Cc1cc2cnc(Nc3cnn(C4CC4)c3Cl)nc2cc1C1CCN([C@]2(C)COC[C@@H]2O)CC1 (single isomer, unassigned) [Ex-2.37, (3S,4S) or (3R,4R) 4-(4-{2-[(5-chloro-1-cyclopropyl-1H-pyrazol-4-yl)amino]-6-methylquinazolin-7-yl}piperidin-1-yl)-4-methyloxolan-3-ol]",7.78
20,"CN1CCC(c2cc3nc(Nc4cnn(CC(C)(C)O)c4Cl)ncc3cc2Cl)CC1 [Ex-4.72, 1-(5-chloro-4-{[6-chloro-7-(1-methylpiperidin-4-yl)quinazolin-2-yl]amino}-1H-pyrazol-1-yl)-2-methylpropan-2-ol]",8.92

# Same assay, conditions: G2019S LRRK2, 134 μM ATP (Km ATP), mean values; read-out: LRRK2 pIC50 (converted)
row,SMILES,IC50 [nM]
1,"CC(C)(O)CN1CCC(c2cc3nc(Nc4cnn(C5CC5)c4)ncc3cc2Cl)C1 (single isomer, unassigned) [Ex-1.9, (S) or (R) 1-(3-{6-chloro-2-[(1-cyclopropyl-1H-pyrazol-4-yl)amino]quinazolin-7-yl}pyrrolidin-1-yl)-2-methylpropan-2-ol]",30.2
2,"CC1(N2CC3(CC(n4cc(Nc5ncc6cc(Cl)c(C7CC78CC8)cc6n5)cn4)C3)C2)COC1 (single isomer, unassigned) [Ex-2.7, (S) or (R) 6-chloro-N-{1-[2-(3-methyloxetan-3-yl)-2-azaspiro[3.3]heptan-6-yl]-1H-pyrazol-4-yl}-7-(spiro[2.2]pentan-1-yl)quinazolin-2-amine]",0.813
3,"Cc1c(Nc2ncc3cc(Cl)c(C4CCN(CC(O)CC(F)(F)F)CC4)cc3n2)cnn1C1CC1 (single isomer, unassigned) [Ex-4.191, (S) or (R) 1-(4-{6-chloro-2-[(1-cyclopropyl-5-methyl-1H-pyrazol-4-yl)amino]quinazolin-7-yl}piperidin-1-yl)-4,4,4-trifluorobutan-2-ol]",< 0.631
